# Test results from patent publication US20050014849A1, “Antifungal phenylethylene” (priority 2001, published 2005).
# Several values for one entry are separate records, joined by “and”; a condition that tells them apart may be missing. Equal entries are not always repeated.
# What was measured:
# [1] = test system: Trichosporon cutaneum ATCC 28592; assay: Broth macrodilution MIC/MFC; assay type: cell-based
# Procedure: (§1) TMPN was screened against yeasts by the broth macrodilution assay according to the NCCLS [7]. Yeasts were suspended and diluted as recommended to yield final inocula ranging from 0.5-2.5×10^3 cfu/ml. Tests were performed in sterile 12 by 75 mm plastic tubes containing two-fold dilutions of TMPN in 0.165 M morpholinepropanesulfonic acid buffered RPMI 1640 medium (pH 7.0). One tube was again left drug free (but contained an equivalent volume of DMSO) for a turbidity control. Tubes were incubated without agitation at the appropriate temperature (see Fungal Strains section above). MICs were determined after 72 h for Cryptococcus and after 48 h for other yeast genera. The MIC was defined as the lowest concentration of TMPN that inhibited all visible growth of the test organism (optically clear).
# (§2) Minimum fungicidal concentrations (MFCs) were determined by subculturing 0.1 ml from each tube with no visible growth in the MIC broth macrodilution series onto the appropriate drug-free plates (see Fungal Strains section above).
# K. apiculate ATCC 9774 = assay: Broth macrodilution MIC/MFC; assay type: cell-based
# Procedure: as §1, §2
# [2] = test system: Filobasidium uniguttulatum ATCC 24227; assay: Broth macrodilution MIC/MFC; assay type: cell-based
# Procedure: as §1, §2
# [3] = test system: Kluyveromyces marxianus ATCC 365534; assay: Broth macrodilution MIC/MFC; assay type: cell-based
# Procedure: as §1, §2
# [4] = test system: Fluconazole-resistant Cryptococcus neoformans (4); assay: Broth macrodilution MIC/MFC; assay type: cell-based
# Procedure: as §1, §2
# Candida albicans (7) = assay: Broth macrodilution MIC/MFC; assay type: cell-based
# Procedure: as §1, §2
# [5] = test system: C. neoformans (ATCC 90112); assay: Frequency of occurrence of spontaneous mutants; assay type: cell-based, Cryptococcus neoformans; conditions: four times the broth macrodilution MIC
# Procedure: Determination of the frequency of occurrence of spontaneous mutants was performed as previously described. Overnight cultures of C neoformans (ATCC 90112), C. albicans (ATCC 90028) and Trichosporon inkin (ATCC 18020) were diluted to an OD530 nm=0.3. 0.1 ml of each preparation was spread onto SDA plates containing four or eight times the broth macrodilution MIC of TMPN. The starting inoculum for each organism was also diluted and plated onto drug-free SDA plates for determination of cfu/ml. After a 48 h incubation at the appropriate temperature (see Fungal Strains section above), the number of colonies on drug-supplemented SDA was counted. The frequency of occurrence of spontaneous mutants was calculated by dividing the number of colonies on drug-containing plates by the number of colonies in the inoculum. When no colonies were visualized on drug-containing plates, the calculation was (<) 1 colony divided by the number of colonies in the inoculum.
# bovine brain tubulin = test system: T1, bovine brain tubulin; assay: Tubulin polymerization assay; assay type: biochemical; conditions: 1 mg/ml tubulin; 20 min incubation at 30° C.
# T1 construct: Electrophoretically homogeneous bovine brain tubulin [12]
# Procedure: Electrophoretically homogeneous bovine brain tubulin [12] was used in studies to evaluate the effects of TMPN on in vitro tubulin polymerization and the binding of […] (Dupont-NEN) to tubulin. These studies were performed as described previously. In the polymerization assay, varying drug concentrations were added to 1 mg/ml tubulin to determine the amount of drug that would inhibit the extent of the reaction by 50% (20 min incubation at 30° C.) (IC50 value). In the colchicine binding assay, the effect of varying drug concentrations on the binding of 2 μg/ml colchicine to 100 μg/ml tubulin was measured after 10 min at 37° C. (control reaction about 50% complete).
# Ovarian OVCAR-3 = assay: Sulforhodamine B cancer cell growth inhibition; assay type: cell-based; conditions: Homo sapiens, 48 h, read-out: GI50 (inhibition of 50% of cell growth)
# Procedure: (§3) An investigation TMPN's in vitro antineoplastic activity was also conducted. This investigation included an analysis of both cell growth, and of the effects of TMPN upon tubulin. Inhibition of cancer cell growth was assessed using the Sulforhodamine B assay as previously described. Briefly, cells in 5% fetal calf serum/RPMI-1640 were inoculated into 96 well plates, incubated 24 h and 10-fold dilutions of TMPN added. After a 48 h incubation, plates were fixed with trichloroacetic acid, washed, stained with Sulforhodamine B and read with an automated microtiter plate reader.
# Lung-NSC NCI-H460 = assay: Sulforhodamine B cancer cell growth inhibition; assay type: cell-based; conditions: Homo sapiens, 48 h, read-out: GI50 (inhibition of 50% of cell growth)
# Procedure: as §3
# Colon KM20L2 = assay: Sulforhodamine B cancer cell growth inhibition; assay type: cell-based; conditions: Homo sapiens, KM-20L2, 48 h, read-out: GI50 (inhibition of 50% of cell growth)
# Procedure: as §3
# CNS SF-295 = assay: Sulforhodamine B cancer cell growth inhibition; assay type: cell-based; conditions: Homo sapiens, 48 h, read-out: GI50 (inhibition of 50% of cell growth)
# Procedure: as §3
# Pancreas BXPC-3 = assay: Sulforhodamine B cancer cell growth inhibition; assay type: cell-based; conditions: Homo sapiens, 48 h, read-out: GI50 (inhibition of 50% of cell growth)
# Procedure: as §3
# Prostate DU-145 = assay: Sulforhodamine B cancer cell growth inhibition; assay type: cell-based; conditions: Homo sapiens, 48 h, read-out: GI50 (inhibition of 50% of cell growth)
# Procedure: as §3
# C. neoformans ATCC 90112 = assay: Broth macrodilution MIC/MFC; assay type: cell-based, Cryptococcus neoformans; conditions: for MFC / MIC: Cryptococcus neoformans
# Procedure: as §1, §2
# Possible host effects were also evaluated. Broth macrodilution assays were performed with RPMI medium prepared at pH 5, pH 6, and pH 7, and in RPMI medium with and without 50% normal human serum (Lampire Biological Labs). The pH experiments were performed twice on separate days.
# C. tropicalis (9) = assay: Broth macrodilution MIC/MFC; assay type: cell-based, Candida tropicalis
# Procedure: as §1, §2
# C. rugosa (7) = assay: Broth macrodilution MIC/MFC; assay type: cell-based, Candida rugosa
# Procedure: as §1, §2
# [6] = ATCC90112, Cryptococcus neoformans ATCC 90112, 20 μg/ml bovine serum albumin
# [7] = ATCC90112, Cryptococcus neoformans ATCC 90112, 40 μg/ml bovine serum albumin
# [8] = ATCC90112, Cryptococcus neoformans ATCC 90112, no bovine serum albumin
# [9] = ATCC90112, Cryptococcus neoformans ATCC 90112, no serum
# [10] = ATCC90112, pH 5, Cryptococcus neoformans ATCC 90112, pH 5
# [11] = ATCC90112, pH 5, Cryptococcus neoformans ATCC 90112, pH 5, repeat experiment
# [12] = ATCC90112, pH 6, Cryptococcus neoformans ATCC 90112, pH 6
# [13] = ATCC90112, pH 6, Cryptococcus neoformans ATCC 90112, pH 6, repeat experiment
# [14] = ATCC90112, pH 7, Cryptococcus neoformans ATCC 90112, pH 7
# [15] = ATCC90112, pH 7, Cryptococcus neoformans ATCC 90112, pH 7, repeat experiment
compound,measurement,setting,value
"COc1cc(C=C[N+](=O)[O-])cc(OC)c1OC [TMPN, 1-(3′,4′,5′-trimethoxyphenyl)-2-nitro-ethylene]",MFC Range,[1],8 µg/mL
same,MIC Range,[1],4 µg/mL
same,MFC Range,K. apiculate ATCC 9774,2 µg/mL
same,MIC Range,K. apiculate ATCC 9774,1 µg/mL
same,MFC Range,[2],2 µg/mL
same,MIC Range,[2],0.5 µg/mL
same,MFC Range,[3],4 µg/mL
same,MIC Range,[3],4 µg/mL
same,MFC Range,[4],4 to 16 µg/mL
same,MIC Range,[4],4 to 8 µg/mL
same,share of isolates with MFC/MIC ratio <2,Candida albicans (7); C. albicans clinical isolates,71%
same,MIC Range,Candida albicans (7); Candida albicans (7),4 to 32 µg/mL
same,share of isolates with MFC/MIC ratio ≦2,Candida albicans (7); Candida albicans clinical isolates,71%
same,frequency of occurrence of single-step resistant mutants,[5],≤ 10^−6
same,IC50 for inhibition of the extent of tubulin assembly,bovine brain tubulin,0.60 µg/mL and 0.60 ± 0.07 µg/mL
same,GI50,Ovarian OVCAR-3,1.8 µg/mL
same,GI50,Lung-NSC NCI-H460,1.4 µg/mL
same,GI50,Colon KM20L2,1.4 µg/mL
same,GI50,CNS SF-295,2 µg/mL
same,GI50,Pancreas BXPC-3,1.6 µg/mL
same,GI50,Prostate DU-145,1.1 µg/mL
same,MFC Range,C. neoformans ATCC 90112; C. neoformans ATCC 90112,4 µg/mL
same,MIC Range,C. neoformans ATCC 90112; C. neoformans ATCC 90112,2 µg/mL
same,MFC,C. neoformans ATCC 90112; [6],4 µg/mL
same,MIC,C. neoformans ATCC 90112; [6],4 µg/mL
same,MFC,C. neoformans ATCC 90112; [7],4 µg/mL
same,MIC,C. neoformans ATCC 90112; [7],4 µg/mL
same,MIC,"C. neoformans ATCC 90112; ATCC90112, Cryptococcus neoformans ATCC 90112, 50% human serum",> 64 µg/mL
same,MFC,C. neoformans ATCC 90112; [8],4 µg/mL
same,MIC,C. neoformans ATCC 90112; [8],2 µg/mL
same,MFC,C. neoformans ATCC 90112; [9],4 µg/mL
same,MIC,C. neoformans ATCC 90112; [9],2 µg/mL
same,MFC,C. neoformans ATCC 90112; [10],4 µg/mL
same,MIC,C. neoformans ATCC 90112; [10],2 µg/mL
same,MFC,C. neoformans ATCC 90112; [11],2 µg/mL
same,MIC,C. neoformans ATCC 90112; [11],1 µg/mL
same,MFC,C. neoformans ATCC 90112; [12],4 µg/mL
same,MIC,C. neoformans ATCC 90112; [12],4 µg/mL
same,MFC,C. neoformans ATCC 90112; [13],4 µg/mL
same,MIC,C. neoformans ATCC 90112; [13],4 µg/mL
same,MFC,C. neoformans ATCC 90112; [14],4 µg/mL
same,MIC,C. neoformans ATCC 90112; [14],2 µg/mL
same,MFC,C. neoformans ATCC 90112; [15],4 µg/mL
same,MIC,C. neoformans ATCC 90112; [15],2 µg/mL
same,MIC Range,C. tropicalis (9),32 to 64 µg/mL
same,MIC Range,C. rugosa (7),1 to 64 µg/mL
